Test [1] has as its target T1, AEA-DA lipid probe targets in Neuro2a cells (Mus musculus, UniProt P10649).
T1 sequence (P10649 1-218): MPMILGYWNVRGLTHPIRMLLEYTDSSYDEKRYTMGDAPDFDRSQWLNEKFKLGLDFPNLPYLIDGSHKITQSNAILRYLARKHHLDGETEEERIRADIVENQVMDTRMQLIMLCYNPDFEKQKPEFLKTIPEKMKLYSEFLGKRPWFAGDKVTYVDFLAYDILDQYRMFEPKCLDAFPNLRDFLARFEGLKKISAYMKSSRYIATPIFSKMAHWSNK

Test [2] deals with AEA-DA lipid probe targets in Neuro2a cells (Mus musculus, UniProt P20029).
The target in test [3] is AEA-DA lipid probe targets in Neuro2a cells (Mus musculus, UniProt P20152).
Test [4] addresses T2, AEA-DA lipid probe targets in Neuro2a cells (Mus musculus, UniProt P61759).
T2 sequence (P61759 1-196): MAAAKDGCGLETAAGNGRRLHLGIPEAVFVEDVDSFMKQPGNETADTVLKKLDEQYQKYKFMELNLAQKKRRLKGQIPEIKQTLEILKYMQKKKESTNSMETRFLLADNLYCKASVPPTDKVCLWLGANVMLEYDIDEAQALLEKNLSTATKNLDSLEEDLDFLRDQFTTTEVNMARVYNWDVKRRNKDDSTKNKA

Test [5] concerns the target T3, AEA-DA lipid probe targets in Neuro2a cells (Mus musculus, UniProt Q3UEB3).
T3 sequence (Q3UEB3 1-564): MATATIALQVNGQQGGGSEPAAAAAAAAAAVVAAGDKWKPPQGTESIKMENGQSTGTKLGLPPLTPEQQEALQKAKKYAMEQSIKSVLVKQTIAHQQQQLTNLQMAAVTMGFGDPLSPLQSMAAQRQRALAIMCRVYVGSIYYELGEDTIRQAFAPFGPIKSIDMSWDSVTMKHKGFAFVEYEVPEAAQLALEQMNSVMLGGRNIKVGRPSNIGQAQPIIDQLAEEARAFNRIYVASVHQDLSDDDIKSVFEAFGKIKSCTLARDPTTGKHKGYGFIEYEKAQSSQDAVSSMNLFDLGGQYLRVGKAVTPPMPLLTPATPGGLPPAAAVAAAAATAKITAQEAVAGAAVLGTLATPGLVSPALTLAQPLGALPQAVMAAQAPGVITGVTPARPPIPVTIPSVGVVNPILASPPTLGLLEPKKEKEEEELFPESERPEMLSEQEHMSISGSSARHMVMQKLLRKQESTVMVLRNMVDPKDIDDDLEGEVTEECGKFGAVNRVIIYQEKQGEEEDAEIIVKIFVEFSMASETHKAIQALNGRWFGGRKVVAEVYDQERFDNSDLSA

In test [6] the target is T4, AEA-DA lipid probe targets in Neuro2a cells (Mus musculus, UniProt Q791V5).
T4 sequence (Q791V5 1-303): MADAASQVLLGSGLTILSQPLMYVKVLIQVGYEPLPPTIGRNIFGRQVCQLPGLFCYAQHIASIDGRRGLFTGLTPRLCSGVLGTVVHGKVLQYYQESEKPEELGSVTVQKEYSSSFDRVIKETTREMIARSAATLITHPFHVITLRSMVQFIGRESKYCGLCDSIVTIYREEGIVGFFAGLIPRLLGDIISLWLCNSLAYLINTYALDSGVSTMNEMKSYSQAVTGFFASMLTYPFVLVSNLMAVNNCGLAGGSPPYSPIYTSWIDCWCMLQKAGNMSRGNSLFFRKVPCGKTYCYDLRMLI

Test [7] has as its target T5, AEA-DA lipid probe targets in Neuro2a cells (Mus musculus, UniProt Q8BHN3).
T5 sequence (Q8BHN3 33-944): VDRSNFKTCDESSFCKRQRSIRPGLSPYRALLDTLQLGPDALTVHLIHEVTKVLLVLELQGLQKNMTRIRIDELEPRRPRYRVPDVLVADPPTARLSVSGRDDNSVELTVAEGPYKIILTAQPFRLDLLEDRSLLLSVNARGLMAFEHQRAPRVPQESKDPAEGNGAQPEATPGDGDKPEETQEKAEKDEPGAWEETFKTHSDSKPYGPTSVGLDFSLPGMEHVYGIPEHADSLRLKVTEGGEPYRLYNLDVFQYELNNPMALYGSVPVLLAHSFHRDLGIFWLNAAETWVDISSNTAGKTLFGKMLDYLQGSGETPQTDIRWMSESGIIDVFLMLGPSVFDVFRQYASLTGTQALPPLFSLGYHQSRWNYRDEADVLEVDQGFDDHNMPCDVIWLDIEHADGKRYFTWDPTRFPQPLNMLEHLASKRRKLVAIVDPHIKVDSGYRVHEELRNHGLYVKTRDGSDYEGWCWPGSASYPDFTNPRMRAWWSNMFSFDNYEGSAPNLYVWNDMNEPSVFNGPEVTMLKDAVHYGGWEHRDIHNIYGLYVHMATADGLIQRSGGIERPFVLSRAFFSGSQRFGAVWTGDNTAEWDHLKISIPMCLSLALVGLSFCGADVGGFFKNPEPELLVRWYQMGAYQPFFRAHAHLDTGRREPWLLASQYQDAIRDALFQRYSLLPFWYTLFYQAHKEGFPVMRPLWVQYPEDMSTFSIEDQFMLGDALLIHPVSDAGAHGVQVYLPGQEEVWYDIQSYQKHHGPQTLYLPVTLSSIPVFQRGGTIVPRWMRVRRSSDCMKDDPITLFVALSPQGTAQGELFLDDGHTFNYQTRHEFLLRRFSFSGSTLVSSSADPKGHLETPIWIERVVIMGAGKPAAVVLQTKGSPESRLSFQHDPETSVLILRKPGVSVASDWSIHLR

The target in test [8] is T6, AEA-DA lipid probe targets in Neuro2a cells (Mus musculus, UniProt Q9JMF7).
T6 sequence (Q9JMF7 1-238): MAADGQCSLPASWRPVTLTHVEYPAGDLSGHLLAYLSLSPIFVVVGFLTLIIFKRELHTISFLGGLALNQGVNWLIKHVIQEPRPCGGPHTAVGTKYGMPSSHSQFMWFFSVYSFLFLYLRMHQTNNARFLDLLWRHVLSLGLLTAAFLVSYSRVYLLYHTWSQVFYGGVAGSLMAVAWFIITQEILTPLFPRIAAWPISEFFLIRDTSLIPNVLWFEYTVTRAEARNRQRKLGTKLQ

Here are results for 5 molecules from patent US10168342B2, “Lipid probes and uses thereof” (THE SCRIPPS RESEARCH INSTITUTE, priority 2015, dated 2019).

Where two headings read alike, the source gives them in different places.

Sequence of AEA-DA lipid probe targets in Neuro2a cells (Mus musculus, UniProt P20029) (P20029 20-655): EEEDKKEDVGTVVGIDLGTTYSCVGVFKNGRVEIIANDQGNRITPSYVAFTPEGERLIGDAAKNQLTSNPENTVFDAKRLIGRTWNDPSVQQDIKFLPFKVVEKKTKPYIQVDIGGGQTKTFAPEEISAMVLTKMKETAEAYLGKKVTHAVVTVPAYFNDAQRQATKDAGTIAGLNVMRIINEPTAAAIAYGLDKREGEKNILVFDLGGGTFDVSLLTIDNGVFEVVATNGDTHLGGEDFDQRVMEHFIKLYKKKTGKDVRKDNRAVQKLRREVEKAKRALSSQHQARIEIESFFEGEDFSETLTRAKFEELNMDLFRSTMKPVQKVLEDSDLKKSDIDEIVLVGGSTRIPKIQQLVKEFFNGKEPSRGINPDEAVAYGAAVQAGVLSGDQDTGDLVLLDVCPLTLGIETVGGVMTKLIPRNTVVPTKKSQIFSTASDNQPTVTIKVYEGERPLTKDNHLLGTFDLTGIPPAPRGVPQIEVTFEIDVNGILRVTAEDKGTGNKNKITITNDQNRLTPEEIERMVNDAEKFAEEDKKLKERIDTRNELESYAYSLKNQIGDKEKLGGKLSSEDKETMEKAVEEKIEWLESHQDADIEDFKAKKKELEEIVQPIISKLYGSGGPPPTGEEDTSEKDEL
Sequence of AEA-DA lipid probe targets in Neuro2a cells (Mus musculus, UniProt P20152) (P20152 whole entry): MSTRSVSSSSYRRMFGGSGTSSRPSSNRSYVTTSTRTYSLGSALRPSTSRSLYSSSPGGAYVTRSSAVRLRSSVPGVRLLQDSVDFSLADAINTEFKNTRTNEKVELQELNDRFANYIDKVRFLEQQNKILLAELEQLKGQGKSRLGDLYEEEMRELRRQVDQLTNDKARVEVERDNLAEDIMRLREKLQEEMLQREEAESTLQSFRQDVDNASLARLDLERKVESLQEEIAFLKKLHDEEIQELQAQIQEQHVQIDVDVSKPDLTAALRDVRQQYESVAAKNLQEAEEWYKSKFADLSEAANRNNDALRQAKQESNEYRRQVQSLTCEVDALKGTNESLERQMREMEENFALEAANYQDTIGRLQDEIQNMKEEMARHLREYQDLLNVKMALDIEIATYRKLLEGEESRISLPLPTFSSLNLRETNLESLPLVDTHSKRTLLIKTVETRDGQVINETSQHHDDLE

For `CCCCC/C=C\C/C=C\C/C=C\C/C=C\CCCC(=O)NCCO` [AEA, anandamide, reference compound], the “SILAC ratio, Gstm1” value in test [1] (competitor 200 μM) is recorded as 2.3. Besides, in test [2] (competitor 200 μM), the “SILAC ratio Hspa5” value came out at 1.2. Moreover, the “SILAC ratio Vim” value in test [3] (competitor 200 μM) amounted to 0.9. In addition, in test [4] (competitor 200 μM), the “SILAC ratio, Vbp1” value was 1.1. For the same molecule, in test [5] (competitor 200 μM), the “SILAC ratio Puf60” value is listed as 1.3. Further, in test [6] (competitor 200 μM), the “SILAC ratio Mtch2” value is given as 1.5. Also, the “SILAC ratio Ganab” value in test [7] (competitor 200 μM) came to 1.1. Further, the “SILAC ratio, Dolpp1” value in test [8] (competitor 200 μM) is reported as 2.2.
Regarding `O=C(/C=C/c1cccnc1)NCCCCC1CCN(C(=O)c2ccccc2)CC1` [FK-866, reference compound], in test [1] (competitor 25 μM), the “SILAC ratio, Gstm1” value stood at 1.5. Also, the “SILAC ratio Hspa5” value in test [2] (competitor 25 μM) was 1.2. For the same molecule, in test [3] (competitor 25 μM), the “SILAC ratio Vim” value is on record as 1.2. Also, in test [4] (competitor 25 μM), the “SILAC ratio, Vbp1” value came out at 1.1. The “SILAC ratio Puf60” value in test [5] (competitor 25 μM) was 1.3. For the same molecule, in test [6] (competitor 25 μM), the “SILAC ratio Mtch2” value turned out to be 1.1. The “SILAC ratio Ganab” value in test [7] (competitor 25 μM) was 1.1. Also, the “SILAC ratio, Dolpp1” value in test [8] (competitor 25 μM) was 1.2.
As to `CN1CCN(C(=O)c2c(-c3ccccc3)c3cc([N+](=O)[O-])ccc3n2C)CC1` [KML110, (1-Methyl-5-nitro-3-phenyl-1H-indol-2-yl)(4-methylpiperazin-1-yl)methanone], the “SILAC ratio, Gstm1” value in test [1] (competitor 25 μM) was determined as 2.2. Further, the “SILAC ratio Hspa5” value in test [2] (competitor 25 μM) turned out to be 1.4. Besides, in test [3] (competitor 25 μM), the “SILAC ratio Vim” value was 1.2. Further, the “SILAC ratio, Vbp1” value in test [4] (competitor 25 μM) came out at 1.6. In addition, in test [5] (competitor 25 μM), the “SILAC ratio Puf60” value was determined as 1.3. For the same molecule, the “SILAC ratio Mtch2” value in test [6] (competitor 25 μM) is recorded as 1.3. Also, the “SILAC ratio Ganab” value in test [7] (competitor 25 μM) was 1.3. For the same molecule, the “SILAC ratio, Dolpp1” value in test [8] (competitor 25 μM) is on record as 1.6.
With `CN1CCN(C(=O)c2[nH]c3ccc([N+](=O)[O-])cc3c2-c2ccccc2)CC1` [MJN228, (4-Methylpiperazin-1-yl)(5-nitro-3-phenyl-1H-indol-2-yl)methanone], the “SILAC ratio, Gstm1” value is given as 1.7 in test [1] (competitor 10 μM), 1.7 in test [1] (competitor 25 μM), 2.1 in test [1] (competitor 50 μM) and 2.6 in test [1] (competitor 100 μM). For the same molecule, the “SILAC ratio Hspa5” value in test [2] (competitor 10 μM) is 1.4; in test [2] (competitor 25 μM), 1.4; in test [2] (competitor 50 μM) it was 1.4; in test [2] (competitor 100 μM), 1.5. In addition, the “SILAC ratio Vim” value was 1.2 in test [3] (competitor 10 μM), 1.2 in test [3] (competitor 25 μM), 0.9 in test [3] (competitor 50 μM) and 1.0 in test [3] (competitor 100 μM). For the same molecule, the “SILAC ratio, Vbp1” value in test [4] (competitor 25 μM) was found to be 1.5; in test [4] (competitor 50 μM), 0.9; in test [4] (competitor 100 μM) it was 2.0. The “SILAC ratio Puf60” value is on record as 1.4 in test [5] (competitor 10 μM), 1.2 in test [5] (competitor 25 μM), 1.0 in test [5] (competitor 50 μM) and 1.2 in test [5] (competitor 100 μM). The “SILAC ratio Mtch2” value in test [6] (competitor 10 μM) was determined as 1.2; in test [6] (competitor 25 μM) it was 1.3; in test [6] (competitor 50 μM), 1.1; in test [6] (competitor 100 μM), 1.4. Further, the “SILAC ratio Ganab” value in test [7] (competitor 10 μM) was 1.2; in test [7] (competitor 25 μM), 1.2; in test [7] (competitor 50 μM), 1.5; in test [7] (competitor 100 μM), 1.6. Further, the “SILAC ratio, Dolpp1” value was 1.2 in test [8] (competitor 10 μM), 1.6 in test [8] (competitor 25 μM), 1.9 in test [8] (competitor 50 μM) and 3.3 in test [8] (competitor 100 μM).
With `C=CCN(C)CCCCCCOc1ccc(C(=O)c2ccc(Br)cc2)c(F)c1` [Ro 48-8071, reference compound], the “SILAC ratio, Gstm1” value in test [1] (competitor 25 μM) is recorded as 1.4. Moreover, the “SILAC ratio Hspa5” value in test [2] (competitor 25 μM) amounted to 0.9. The “SILAC ratio Vim” value in test [3] (competitor 25 μM) came to 0.8. Besides, in test [4] (competitor 25 μM), the “SILAC ratio, Vbp1” value is listed as 0.9. Besides, in test [5] (competitor 25 μM), the “SILAC ratio Puf60” value came out at 1.0. In addition, in test [6] (competitor 25 μM), the “SILAC ratio Mtch2” value amounted to 0.9. Further, the “SILAC ratio Ganab” value in test [7] (competitor 25 μM) was found to be 0.9. For the same molecule, the “SILAC ratio, Dolpp1” value in test [8] (competitor 25 μM) is on record as 1.3.
